Structures are written as SMILES. ± gives the expanded uncertainty stated by the source.

Series [1] can be described thus: xn = mol fraction of the nth substance listed. The conditions noted are these: Liquid, measurement of pressure, x2 = 0.
The conditions of series [2]: 101.33 kPa, Liquid, Pycnometric method.

For `C[n+]1ccn(CCO)c1.F[B-](F)(F)F` [1-(2-hydroxyethyl)-3-methylimidazolium tetrafluoroborate] + S, the binary diffusion coefficient in series [1] (303.15 K) amounted to 1.79e-08 m2/s; in series [1] (313.15 K) it was 2.15e-08 m2/s; in series [1] (323.15 K) it was 2.76e-08 m2/s; in series [1] (333.15 K) it was 3.24e-08 m2/s; in series [1] (343.15 K), 3.8e-08 m2/s; in series [1] (353.15 K), 4.41e-08 m2/s.
By mass density is commonly meant mass per unit of volume. On to `C[n+]1ccn(CCO)c1.F[B-](F)(F)F` [1-(2-hydroxyethyl)-3-methylimidazolium tetrafluoroborate], for which the mass density in series [2] (300.71 K) came out at 1384 ± 1 kg/m3; in series [2] (303.35 K), 1380 ± 1 kg/m3; in series [2] (304.95 K) it was 1379 ± 1 kg/m3; in series [2] (307.31 K), 1376 ± 1 kg/m3; in series [2] (310.81 K), 1373 ± 1 kg/m3; in series [2] (314.35 K), 1369 ± 1 kg/m3.
With `C[n+]1ccn(CCO)c1.F[B-](F)(F)F` [1-(2-hydroxyethyl)-3-methylimidazolium tetrafluoroborate] + O=C=O, the binary diffusion coefficient is 1.4e-08 m2/s in series [1] (303.15 K); 2.09e-08 m2/s in series [1] (313.15 K); 3.94e-08 m2/s in series [1] (323.15 K); 4.65e-08 m2/s in series [1] (333.15 K); 5.71e-08 m2/s in series [1] (343.15 K); 7.16e-08 m2/s in series [1] (353.15 K).

For the origin of these results see the NIST ThermoML archive (doi:10.1021/je900716q).
